The target in assay [1] is RAF proto-oncogene serine/threonine-protein kinase (Homo sapiens, UniProt P04049). The assay is described as follows: Inhibition of RAF1 Lys2 labeling site in human Huh-7 cell lysate at 1 uM by KiNativ Profiling analysis relative to control. It is filed as subcellular.
Assay [2] has as its target Aurora kinase B (Homo sapiens) (UniProt Q96GD4). The assay is described as follows: Inhibition of AurB ATP labeling site in human Huh-7 cell lysate at 1 uM by KiNativ Profiling analysis relative to control. It is filed as subcellular.
Assay [3] has as its target T1, Interleukin-1 receptor-associated kinase 4 (Homo sapiens) (UniProt Q9NWZ3).
T1 sequence (whole entry): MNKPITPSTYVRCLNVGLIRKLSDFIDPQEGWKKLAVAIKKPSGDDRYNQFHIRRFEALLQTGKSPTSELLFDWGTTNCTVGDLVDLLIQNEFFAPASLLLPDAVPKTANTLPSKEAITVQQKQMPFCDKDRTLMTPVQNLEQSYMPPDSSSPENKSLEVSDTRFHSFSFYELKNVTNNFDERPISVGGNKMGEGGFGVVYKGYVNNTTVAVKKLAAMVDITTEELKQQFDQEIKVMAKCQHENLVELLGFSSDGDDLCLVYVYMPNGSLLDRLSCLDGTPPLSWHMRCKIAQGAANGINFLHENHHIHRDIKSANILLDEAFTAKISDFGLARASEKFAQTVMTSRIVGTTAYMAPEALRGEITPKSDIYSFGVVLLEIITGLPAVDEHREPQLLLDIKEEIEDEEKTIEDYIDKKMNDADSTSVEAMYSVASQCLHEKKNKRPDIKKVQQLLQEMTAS
The assay is described as follows: Inhibition of IRAK4 Lys2 labeling site in human Huh-7 cell lysate at 1 uM by KiNativ Profiling analysis relative to control. It is filed as subcellular.

Assay [4] has as its target Serine/threonine-protein kinase 24 (Homo sapiens) (UniProt Q9Y6E0). The assay is described as follows: Inhibition of MST3 Lys2 labeling site harbouring DIKAANVLLSEHGEVK in human Huh-7 cell lysate at 1 uM by KiNativ Profiling analysis relative to control. The format is subcellular.
Assay [5] deals with MAP/microtubule affinity-regulating kinase 3 (Homo sapiens) (UniProt P27448). The assay is described as follows: Inhibition of MARK3 Lys2 labeling site in human Huh-7 cells at 1 uM by KiNativ Profiling analysis relative to control. It is filed as cell-based.
For assay [6], the target named is Serine/threonine-protein kinase Nek7 (Homo sapiens) (UniProt Q8TDX7). The assay is described as follows: Inhibition of NEK7 Lys2 labeling site harbouring DIKPANVFITATGVVK in human Huh-7 cells at 1 uM by KiNativ Profiling analysis relative to control. The format is cell-based.
Assay [7] addresses MAP kinase-activated protein kinase 2 (Homo sapiens) (UniProt P49137). The assay is described as follows: Inhibition of MAPKAPK2 (unknown origin) at 1 uM by Ambit Kinomescan binding assay relative to control.
The target in assay [8] is RAC-beta serine/threonine-protein kinase (Homo sapiens) (UniProt P31751). The assay is described as follows: Inhibition of AKT2 ATP Loop labeling site in human A-375 cells at 5 uM by KiNativ Profiling analysis relative to control. The format is cell-based.
Assay [9] has as its target RAC-gamma serine/threonine-protein kinase (Homo sapiens) (UniProt Q9Y243). The assay is described as follows: Inhibition of AKT3 ATP Loop labeling site in human A-375 cells at 5 uM by KiNativ Profiling analysis relative to control. It is filed as cell-based.
Assay [10] addresses Diacylglycerol kinase alpha (Homo sapiens) (UniProt P23743). The assay is described as follows: Inhibition of DGKA ATP labeling site harbouring in human A-375 cells at 5 uM by KiNativ Profiling analysis relative to control. It is filed as cell-based.
The target of assay [11] is Cyclin-dependent kinase 7 (Homo sapiens) (UniProt P50613). The assay is described as follows: Inhibition of CDK7 Lys2 labeling site in human A-375 cells at 0.05 uM by KiNativ Profiling analysis relative to control. The format is cell-based.
Assay [12] deals with Serine/threonine-protein kinase PAK 3 (Homo sapiens) (UniProt O75914). The assay is described as follows: Inhibition of PAK3 (unknown origin) at 1 uM by Ambit Kinomescan binding assay relative to control; values are per cent of control.
In assay [13] the target is Calcium/calmodulin-dependent protein kinase kinase 2 (Homo sapiens) (UniProt Q96RR4). The assay is described as follows: Inhibition of CAMKK2 (unknown origin) at 1 uM by Ambit Kinomescan binding assay relative to control; values are per cent of control.
The target of assay [14] is Cyclin-dependent kinase 4/cyclin D1 (Homo sapiens) (UniProt P11802+P24385). The assay is described as follows: Inhibition of CDK4/cyclinD1 (unknown origin) at 1 uM by Ambit Kinomescan binding assay relative to control; values are per cent of control.
Assay [15] relates to Mast/stem cell growth factor receptor Kit (Homo sapiens), P10721 [V559D]. The assay is described as follows: Inhibition of KIT V559D mutant (unknown origin) at 1 uM by Ambit Kinomescan binding assay relative to control; values are per cent of control.
Assay [16] addresses Activin receptor type-1 (Homo sapiens) (UniProt Q04771). The assay is described as follows: Inhibition of ACVR1 (unknown origin) at 10 uM by Ambit Kinomescan binding assay.
The target of assay [17] is Serine/threonine-protein kinase PAK 5 (Homo sapiens) (UniProt Q9P286). The assay is described as follows: Inhibition of PAK7 (unknown origin) at 10 uM by Ambit Kinomescan binding assay.
Assay [18] addresses Serine/threonine-protein kinase 16 (Homo sapiens) (UniProt O75716). The assay is described as follows: Inhibition of STK16 (unknown origin) at 10 uM by Ambit Kinomescan binding assay.
Assay [19] has as its target Mitogen-activated protein kinase 14 (Homo sapiens, UniProt Q16539). The assay is described as follows: Inhibition of p38a in human Huh-7 cells at 10 uM by KiNativ Profiling analysis relative to control. The format is cell-based.
The target of assay [20] is Serine/threonine-protein kinase mTOR (Homo sapiens) (UniProt P42345). The assay is described as follows: Inhibition of FRAP ATP labeling site in human Huh-7 cells at 10 uM by KiNativ Profiling analysis relative to control. The format is cell-based.
Assay [21] deals with eIF-2-alpha kinase GCN2 (Homo sapiens) (UniProt Q9P2K8). The assay is described as follows: Inhibition of GCN2 K2 labeling site in human Huh-7 cells at 10 uM by KiNativ Profiling analysis relative to control. It is filed as cell-based.
In assay [22] the target is Calcium/calmodulin-dependent protein kinase type II subunit gamma (Homo sapiens) (UniProt Q13555). The assay is described as follows: Inhibition of CAMK2g K1 labeling site harbouring KTSTQEYAAKIINTK in human Huh-7 cells at 1 uM by KiNativ Profiling analysis relative to control. The format is cell-based.

Here are results for three compounds from ChEMBL document CHEMBL5696442, “Discovery of type II inhibitors of TGFβ-activated kinase 1 (TAK1) and mitogen-activated protein kinase kinase kinase kinase 2 (MAP4K2)” (J Med Chem, 2015).

SMILES strings stand for the structures. Calls of active or inactive are those of the source. The calls are words filed in the database; no cut-off is given here.

Chain of Serine/threonine-protein kinase 24 (Homo sapiens) (Q9Y6E0 whole entry, looked up): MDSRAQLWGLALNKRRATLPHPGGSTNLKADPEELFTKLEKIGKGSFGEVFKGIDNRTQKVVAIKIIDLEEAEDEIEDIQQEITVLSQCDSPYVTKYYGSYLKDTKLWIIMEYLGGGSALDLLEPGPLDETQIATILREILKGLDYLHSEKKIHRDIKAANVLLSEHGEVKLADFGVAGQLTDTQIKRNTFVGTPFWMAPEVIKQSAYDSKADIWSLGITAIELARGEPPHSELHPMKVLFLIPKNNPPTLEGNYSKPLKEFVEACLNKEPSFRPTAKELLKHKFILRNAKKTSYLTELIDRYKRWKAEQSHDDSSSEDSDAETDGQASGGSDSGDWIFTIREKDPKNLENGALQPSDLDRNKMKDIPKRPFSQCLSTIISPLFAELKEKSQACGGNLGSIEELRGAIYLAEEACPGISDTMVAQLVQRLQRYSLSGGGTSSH
Chain of Mast/stem cell growth factor receptor Kit (Homo sapiens), P10721 [V559D] (P10721 whole entry V559D): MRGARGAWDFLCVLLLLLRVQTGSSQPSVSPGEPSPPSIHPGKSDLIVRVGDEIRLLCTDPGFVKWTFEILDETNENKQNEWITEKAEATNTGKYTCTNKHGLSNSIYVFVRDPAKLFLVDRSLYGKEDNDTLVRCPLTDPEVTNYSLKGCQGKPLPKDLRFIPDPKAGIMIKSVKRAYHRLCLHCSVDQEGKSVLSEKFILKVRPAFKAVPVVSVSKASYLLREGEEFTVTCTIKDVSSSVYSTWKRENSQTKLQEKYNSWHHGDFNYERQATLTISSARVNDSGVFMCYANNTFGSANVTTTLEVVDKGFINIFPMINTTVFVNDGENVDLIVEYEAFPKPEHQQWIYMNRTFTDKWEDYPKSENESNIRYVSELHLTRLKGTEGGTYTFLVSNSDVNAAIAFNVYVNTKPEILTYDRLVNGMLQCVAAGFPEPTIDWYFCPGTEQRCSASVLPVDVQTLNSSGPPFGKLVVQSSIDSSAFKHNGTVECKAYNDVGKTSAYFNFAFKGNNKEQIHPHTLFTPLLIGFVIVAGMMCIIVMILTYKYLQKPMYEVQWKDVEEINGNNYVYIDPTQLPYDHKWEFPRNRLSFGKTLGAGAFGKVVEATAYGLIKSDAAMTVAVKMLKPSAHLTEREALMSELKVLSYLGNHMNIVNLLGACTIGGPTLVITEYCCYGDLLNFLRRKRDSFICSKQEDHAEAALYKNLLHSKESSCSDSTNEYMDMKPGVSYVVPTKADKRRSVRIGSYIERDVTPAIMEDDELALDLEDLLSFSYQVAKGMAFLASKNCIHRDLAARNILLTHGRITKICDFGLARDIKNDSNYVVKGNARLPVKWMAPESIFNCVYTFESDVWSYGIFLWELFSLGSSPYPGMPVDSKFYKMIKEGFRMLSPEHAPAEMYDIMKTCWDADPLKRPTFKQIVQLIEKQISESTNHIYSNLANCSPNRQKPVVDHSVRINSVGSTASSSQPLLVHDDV
Chain of MAP kinase-activated protein kinase 2 (Homo sapiens) (P49137 whole entry, looked up): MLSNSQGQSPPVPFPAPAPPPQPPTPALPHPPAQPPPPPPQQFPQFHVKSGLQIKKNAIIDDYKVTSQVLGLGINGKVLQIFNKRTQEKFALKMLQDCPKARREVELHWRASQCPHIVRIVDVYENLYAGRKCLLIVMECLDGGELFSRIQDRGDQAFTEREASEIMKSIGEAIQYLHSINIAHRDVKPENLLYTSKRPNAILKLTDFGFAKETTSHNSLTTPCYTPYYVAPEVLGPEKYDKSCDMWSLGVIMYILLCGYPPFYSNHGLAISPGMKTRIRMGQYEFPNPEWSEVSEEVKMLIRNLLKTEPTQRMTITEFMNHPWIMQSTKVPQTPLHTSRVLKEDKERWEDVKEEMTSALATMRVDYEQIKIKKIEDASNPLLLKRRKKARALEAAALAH
Chain of Serine/threonine-protein kinase 16 (Homo sapiens) (O75716 whole entry): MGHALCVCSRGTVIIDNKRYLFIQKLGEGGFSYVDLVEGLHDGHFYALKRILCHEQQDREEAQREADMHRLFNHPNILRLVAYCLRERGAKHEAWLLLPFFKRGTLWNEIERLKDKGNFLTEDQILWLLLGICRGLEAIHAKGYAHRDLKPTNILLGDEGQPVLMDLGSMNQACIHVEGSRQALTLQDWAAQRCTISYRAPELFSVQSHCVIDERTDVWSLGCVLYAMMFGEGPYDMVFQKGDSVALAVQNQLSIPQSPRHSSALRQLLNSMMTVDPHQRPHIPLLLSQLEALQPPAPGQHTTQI
Chain of Mitogen-activated protein kinase 14 (Q16539 whole entry): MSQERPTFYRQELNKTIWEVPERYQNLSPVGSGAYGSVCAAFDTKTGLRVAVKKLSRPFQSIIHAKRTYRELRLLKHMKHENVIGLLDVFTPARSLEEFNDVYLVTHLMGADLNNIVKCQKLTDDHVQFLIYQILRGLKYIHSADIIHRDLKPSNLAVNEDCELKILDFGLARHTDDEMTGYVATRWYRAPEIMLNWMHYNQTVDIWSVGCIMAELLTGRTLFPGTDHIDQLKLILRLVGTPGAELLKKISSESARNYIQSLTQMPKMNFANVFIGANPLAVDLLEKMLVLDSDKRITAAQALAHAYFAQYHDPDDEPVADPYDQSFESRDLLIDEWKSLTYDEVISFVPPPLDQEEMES
Chain of MAP/microtubule affinity-regulating kinase 3 (Homo sapiens) (P27448 whole entry, looked up): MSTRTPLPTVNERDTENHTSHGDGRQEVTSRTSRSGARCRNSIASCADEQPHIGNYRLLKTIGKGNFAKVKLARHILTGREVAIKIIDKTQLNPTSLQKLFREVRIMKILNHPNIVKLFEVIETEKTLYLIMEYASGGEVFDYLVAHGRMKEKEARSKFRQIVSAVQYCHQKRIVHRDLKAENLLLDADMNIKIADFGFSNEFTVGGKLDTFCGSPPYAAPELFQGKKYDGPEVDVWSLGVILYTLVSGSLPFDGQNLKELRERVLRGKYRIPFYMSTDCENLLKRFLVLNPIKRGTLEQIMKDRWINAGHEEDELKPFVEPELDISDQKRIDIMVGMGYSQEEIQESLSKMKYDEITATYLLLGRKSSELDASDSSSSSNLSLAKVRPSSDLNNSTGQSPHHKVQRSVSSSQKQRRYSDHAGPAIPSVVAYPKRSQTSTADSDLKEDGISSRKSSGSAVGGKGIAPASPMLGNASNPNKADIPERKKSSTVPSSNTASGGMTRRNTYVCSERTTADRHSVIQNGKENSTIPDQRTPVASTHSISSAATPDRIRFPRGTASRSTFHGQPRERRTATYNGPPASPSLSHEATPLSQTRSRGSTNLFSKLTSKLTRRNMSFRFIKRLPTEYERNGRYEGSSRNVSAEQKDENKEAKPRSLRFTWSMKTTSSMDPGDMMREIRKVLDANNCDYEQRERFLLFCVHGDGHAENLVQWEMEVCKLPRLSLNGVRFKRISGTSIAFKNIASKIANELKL
Chain of Cyclin-dependent kinase 7 (Homo sapiens) (P50613 whole entry): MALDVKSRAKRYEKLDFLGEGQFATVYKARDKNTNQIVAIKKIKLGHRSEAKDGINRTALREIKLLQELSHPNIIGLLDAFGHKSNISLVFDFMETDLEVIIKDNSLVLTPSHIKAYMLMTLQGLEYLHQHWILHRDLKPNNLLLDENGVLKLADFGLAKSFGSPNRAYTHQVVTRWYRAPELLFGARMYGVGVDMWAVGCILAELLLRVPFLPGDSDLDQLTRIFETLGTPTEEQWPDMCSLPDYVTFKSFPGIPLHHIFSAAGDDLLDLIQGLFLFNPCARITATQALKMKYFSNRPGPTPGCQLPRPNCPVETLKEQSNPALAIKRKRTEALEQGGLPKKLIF
Chain of Aurora kinase B (Homo sapiens) (Q96GD4 whole entry): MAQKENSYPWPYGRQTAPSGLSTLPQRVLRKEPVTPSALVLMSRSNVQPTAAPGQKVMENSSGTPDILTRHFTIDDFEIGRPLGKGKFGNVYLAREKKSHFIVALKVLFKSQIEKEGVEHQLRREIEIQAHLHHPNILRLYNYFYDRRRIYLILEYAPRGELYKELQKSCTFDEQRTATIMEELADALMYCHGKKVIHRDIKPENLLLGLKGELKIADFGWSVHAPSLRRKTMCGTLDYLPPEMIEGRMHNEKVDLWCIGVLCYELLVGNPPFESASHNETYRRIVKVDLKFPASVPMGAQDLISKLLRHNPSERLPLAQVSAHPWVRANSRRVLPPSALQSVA
Chain of Serine/threonine-protein kinase PAK 5 (Homo sapiens) (Q9P286 whole entry, looked up): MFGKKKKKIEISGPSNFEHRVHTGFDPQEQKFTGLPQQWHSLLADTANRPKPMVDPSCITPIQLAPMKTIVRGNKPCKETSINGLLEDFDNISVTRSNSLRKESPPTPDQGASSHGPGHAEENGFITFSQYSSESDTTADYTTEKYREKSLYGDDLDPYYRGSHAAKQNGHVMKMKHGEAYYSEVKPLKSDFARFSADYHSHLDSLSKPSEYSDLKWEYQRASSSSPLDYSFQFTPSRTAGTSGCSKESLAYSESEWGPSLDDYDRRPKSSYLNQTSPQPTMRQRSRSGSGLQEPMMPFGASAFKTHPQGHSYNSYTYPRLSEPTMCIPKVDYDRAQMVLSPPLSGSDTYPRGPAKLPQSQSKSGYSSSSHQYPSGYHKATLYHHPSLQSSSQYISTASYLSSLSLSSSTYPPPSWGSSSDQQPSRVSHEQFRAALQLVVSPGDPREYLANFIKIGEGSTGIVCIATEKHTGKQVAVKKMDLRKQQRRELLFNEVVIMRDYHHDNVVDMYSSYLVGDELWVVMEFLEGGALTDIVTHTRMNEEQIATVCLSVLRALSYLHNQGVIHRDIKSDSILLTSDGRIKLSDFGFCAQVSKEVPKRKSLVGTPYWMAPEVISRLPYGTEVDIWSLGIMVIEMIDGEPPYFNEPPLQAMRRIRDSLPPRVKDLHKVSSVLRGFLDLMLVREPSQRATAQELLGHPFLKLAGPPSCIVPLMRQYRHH
Chain of Serine/threonine-protein kinase Nek7 (Homo sapiens) (Q8TDX7 whole entry, looked up): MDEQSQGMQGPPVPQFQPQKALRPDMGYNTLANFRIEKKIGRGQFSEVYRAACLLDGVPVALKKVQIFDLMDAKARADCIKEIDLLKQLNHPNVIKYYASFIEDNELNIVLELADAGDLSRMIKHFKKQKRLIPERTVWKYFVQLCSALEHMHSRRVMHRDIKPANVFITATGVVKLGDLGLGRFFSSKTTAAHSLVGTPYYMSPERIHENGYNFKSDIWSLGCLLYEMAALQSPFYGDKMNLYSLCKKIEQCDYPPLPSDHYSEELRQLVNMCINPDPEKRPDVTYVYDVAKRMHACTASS

For the compound `CNc1cc(Oc2cc(C(=O)Nc3cc(N4CCN(C)CC4)cc(C(F)(F)F)c3)ccc2C)ncn1`, the inhibition (usually the drop in the measured response relative to a control, in per cent) is 23.2% in [1]; 2.5% in assay [2]; 8.4% in [3]; 5.5% in [4]; 11.3% in [5]; -2.7% in [6].
With `CCN1CCN(Cc2ccc(NC(=O)c3ccc(C)c(/C=C/c4cnc5[nH]ccc5c4OC)c3)cc2C(F)(F)F)CC1`, the inhibition in [7] is 100%; in assay [8], 13.3%; in assay [9] it was 13.3%; in assay [10] it was -1.8%; in assay [11] it was 32.7%. Further, the residual activity (usually the activity still measured, relative to the control) in [12] was determined as 66%; in assay [13], 100%; in assay [15], 0.05%. Besides, the percent of control in assay [14] came to 100%.
On to `CCN1CCN(Cc2ccc(NC(=O)c3ccc(C)c(Oc4ccnc5[nH]ccc45)c3)cc2C(F)(F)F)CC1`, for which the inhibition result in assay [16], in assay [17], in [18] and in [20] was “inactive” throughout. Also, the inhibition was determined as 98.5% in [19], 14.7% in assay [21] and 1.3% in [22].
